“Also recorded” adds a separate entry of the source.
Tests used:
human melanocytes = assay type: cell-based
melanocytes = test: Apoptosis (propidium iodide-positive nuclei) in UV-irradiated melanocytes; assay type: cell-based, human; settings: UV 10 mJ/cm^2, 50 ng/ml NGF, 24 hours after irradiation; diluent about 30%
Procedure: To determine if melanocyte apoptosis is mediated by p75 NGF-R, cultures were treated as above, and then incubated in the presence of a blocking anti-human p75 NGF-R monoclonal antibody believed to act as a pseudo-ligand for the p75 NGF-R. (Anti-human p75 NGF-R monoclonal antibody courtesy of Moses V. Chao, Cornell University Medical Center, New York, N.Y.; Ross, et al., Proc. Natl. Acad. Sci. 81:6681 (1984)).
Melanocytes were cultured on 8 chamber tissue culture slides (Nunc Inc., Naperville, Ill.) and were UV irradiated with 10 mJ/cm^2 as above. Four microM of propidium iodide (PI) was added to melanocyte cultures 24 hours after irradiation, for 5 minutes at […]. Cultures were washed with PBS and nuclei were analyzed using a Leitz confocal laser microscope (Leica, Deerfield, Ill.).
Melanocytes were sham or UV irradiated with 10 mJ/cm^2 and 25 mJ/cm^2. Twenty-four hours after irradiation, […] of propidium iodide was added to cultures as above and cells were viewed with fluorescent phase contrast Nikon microscope. The number of fragmented or homogeneously stained nuclei versus nonstained nuclei was determined in several representative fields and expressed as a percent of total cells. A minimum of 130 cells were counted for each condition.
Melanocytes were irradiated with 10 mJ/cm^2 or were sham irradiated as in Example 1 and then provided 50 ng/ml NGF or diluent alone. […]

Bcl-2 protein = Bcl-2 protein expression in MM4 cells (FACScan, Western blot); assay type: cell-based, human
Procedure: To determine if NGF induces Bcl-2 protein, MM4 cells were UV-irradiated with 10 mJ/cm^2 or sham irradiated and then supplemented with NGF or diluent alone as explained in Example 3. Twenty-four hours after irradiation, cells were washed with PBS and then detached with 0.5 mM EDTA and washed again with PBS. 10^6 cells were incubated with […] mouse anti human Bcl-2 monoclonal antibody (DAKO Co., Carpinteria, Calif.) or with the same concentration of normal mouse IgG (Cappel, Organon Teknika Co., West Chester, Pa., USA) in PBS with 0.3% Saponin (Sigma, St, Louis, Mo.) for 2 hours at 4%C. After three washes with PBS, cells were incubated with fluorescein-conjugated goat anti-mouse IgG (1 hour at 4%C) (Cappel), washed four times in PBS, fixed with 0.1% fresh formaldehyde, and washed three times in PBS. Fluorescence intensity was determined using FACScan flow cytometer (Becton-Dickinson, San Jose, Calif.).
(−) mouse IgG control; (_) diluent alone; ( . . . ) 50 ng/ml NGF.
MM4 cells were extracted in RIPA buffer (50 mM Tris-HCl [pH 8.0], 0.15 M NaCl, 0.5% sodium deoxycholate, 1% Triton X-100) in the presence of […] aprotinin and 75 µg/ml phenylmethylsulfonyl fluoride, sonicated for 1-3 seconds and centrifuged. […] of protein per lane were separated on 12% SDS/PAGE and blotted onto nitrocellulose paper (overnight, 40V). […]

Keratinocytes = test: Keratinocyte DNA fragmentation and cell yield after UV irradiation with NGF; assay type: cell-based, human
Procedure: Keratinocytes were plated in 60 mm diameter tissue culture dishes in MCDB153 supplemented with epidermal growth factor (0.1 ng/ml human recombinant), insulin (5 microg/ml), hydrocortisone (0.5 microg/ml, calcium (0.15 mM), bovine pituitary extract (BPE), (2 ml per 500 ml medium), gentamicin (50 microg/ml), and amphotericin-B (50 ng/ml) (karetinocyte basal medium). Preconfluent cells were irradiated in phosphate buffered saline PBS) using a 1 KW xenon arc solar simulator (XMN 1000-21, Optical Radiation Corp., Azuza, Calif.) with 15 or 25 mJ/cm^2 UV through the petri dish plastic cover as described in Example 7. After UV irradiation, cells were maintained in their basal medium 3 days and processed as indicated. Sham irradiated control cultures were handled identically but placed under a dark cloth adjacent to the UV beam.
Cells were washed with cold PBS and disrupted in lysis buffer pH8 (10 mM tris, 150 mM NaCl, 0.1 mM EDTA, 1% SDS, 200 µg/ml proteinase K). After 15 hour incubation at […], samples were extracted twice with phenol plus chloroform (1:1, V/V) and precipitated overnight with ethanol (2.5×volume) and 3 M sodium acetate (1/10×volume). The DNA was then digested with DNAse free ribonuclease (10 microg/ml) for one hour at 37C, separated on 1% agarose gel and stained with ethidium bromide.
Keratinocytes were UV-irradiated as in Example 9. After irradiation cells were placed in fresh keratinocyte medium containing 50 ng/ml NGF or diluent alone. DNA fragmentation was determined as in Example 9. […] The standard (STD) is 100 bp DNA ladder (Gibco/BRL). […] UV irradiated keratinocytes were growth arrested as expected.

p75 = p75 signal transduction in melanocytes (JNK activation, intracellular ceramide); assay type: cell-based, human
Procedure: To investigate p75 signal transduction, it was first determined by RT-PCR that trkA and trkC are not expressed in MC maintained in choleragen/TPA-free medium. MC were incubated with 10 ng/ml nerve growth factor (NGF) or neurotrophin-3 (NT-3) for 30 minutes and c-Jun amino terminal kinase (JNK) activation was determined. […] Furthermore, within 3 hours p75 activation by NGF, but not by NT-3, lead to a 2-fold increase of intracellular ceramide. As before, ceramide increase was abrogated by pre-incubation with the cyclic peptide. Because in cell lines, UV irradiation directly activates cell surface receptors such as Fas and the TNFα receptor, sham- or UV-irradiated MC were used to determine p75 activation.

NGF: nerve growth factor, neurotrophin ligand of p75 NGF-R and trk
Cell yields of melanocytes versus diluent alone (human melanocytes; UV 10 mJ/cm^2, 50 ng/ml NGF, 7 experiments): significantly higher | Cell yields, NGF-treated versus control cultures (human melanocytes; determined daily for 19 days): up to 6.5 fold | Thymidine labeling index, NGF-treated versus control cultures (human melanocytes; determined daily for 19 days): ≤ 10 fold | Appearance of cultures after UV irradiation (human melanocytes; melanocytes and MM4 cells, 50 ng/ml NGF): appeared healthy | Nuclei showing fragmentation (propidium iodide positive) (melanocytes): 12% | Bcl-2 level (Bcl-2 protein; UV 10 mJ/cm^2 followed by 50 ng/ml NGF, 24 hours): substantially higher; also recorded: Bcl-2 induction | Bcl-2 level (Bcl-2 protein; sham irradiated, 50 ng/ml NGF): only low levels of Bcl-2 protein | DNA fragmentation of UV irradiated keratinocytes (Keratinocytes; 50 ng/ml NGF): not fragmented | Increase in keratinocyte cell yields (Keratinocytes; NGF supplemented medium, within 5 days): 40% | Decrease in keratinocyte cell yield (Keratinocytes; UV irradiated, 50 ng/ml NGF, within 24 hours, diluent 50%): 30% | JNK activation (phosphorylation of GST-c-Jun(1-79)) (p75; 10 ng/ml, 30 minutes, MC without trkA and trkC): substantially induced phosphorylation of GST-c-Jun(1-79) | Increase of intracellular ceramide (p75; within 3 hours): 2 fold
